In PMC13231895 (Antimicrobial Agents and Chemotherapy, 2026):

Test: Plasma pharmacokinetics after single […] IV infusion of nacubactam 2 g coadministered with meropenem 2 g (Phase 1)
Type: in vivo, healthy adult male and female volunteers
Conditions: n = 21, geometric mean (CV%), 2 g nacubactam + 2 g meropenem IV
Procedure: The study consisted of a screening visit (Days −28 to −1), a treatment and sampling period (Day 1), and a safety follow-up visit (Days 7–14). […] The two drugs were administered concurrently as separate solutions through two separate lines via a large bore, double-lumen catheter, under the supervision of study personnel. […] While all participants received the same study drug treatment and followed the same blood sampling scheme, each individual was assigned to one of five possible timepoints (2, 3, 4, 6, or 8 h after the start of study drug administration) for the BAL procedure. Equal numbers of participants were assigned to each timepoint, and assignment of individual participants was at the discretion of the investigator. […] An additional plasma sample was taken at the same time as part of the BAL procedure to measure urea. The plasma samples were stored at −80°C pending analysis. […] PK parameters were estimated by non-compartmental analysis using Phoenix WinNonlin (version 6.4; Certara USA, Inc.) by Covance.

NCCONC(=O)[C@@H]1CC[C@@H]2CN1C(=O)N2OS(=O)(=O)O [Nacubactam]
AUC0–8h: 275 (19) µg·h/mL
